Measured values reported in PMC11432405, “Development of Novel Alaninamide Derivatives with Anticonvulsant Activity and Favorable Safety Profiles in Animal Models” (International Journal of Molecular Sciences, 2024).
Where two headings read alike, the source gives them in different places.

What was measured:
HepG2 cells = assay: hepatocytotoxicity MTT viability assay; assay type: cell-based, human; details: 24 h
Method: (§1) To evaluate selected compounds’ hepatocytotoxicity and neurocytotoxicity, a human hepatocellular carcinoma cell line, HepG2 (ATCC® HB-8065™), and a human neuroblastoma cell line, SH-SY5Y (ATCC®, CRL-2266™), were used. Both cell lines were cultured in standard culture conditions (5% CO2, 37 °C, 95% humidity) using Dulbecco′s Modified Eagle′s—Medium (DMEM; Gibco, Thermo Scientific, Waltham, MA, USA) supplemented with 10% (vol/vol) fetal bovine serum (FBS; Gibco, Thermo Scientific, Waltham, MA, USA) and an antibiotic mixture (Penicillin, Streptomycin, Amphotericin B; Gibco, Thermo Scientific, Waltham, MA, USA). Cells were cultured with compounds 5, […], or 39 (1–50 µM) for 24 h and then an MTT (3-(4,5-dimethylthiazol-2-yl)-2,5diphenyltetrazolium bromide, Sigma-Aldrich, St. Louis, MO, USA) viability assay was performed. The formazan crystals were dissolved in DMSO (Sigma-Aldrich, St. Louis, MO, USA), and the absorbance at 570 nm was measured using a microplate reader (SpectraMax® iD3, Molecular Devices, San Jose, CA, USA). The experiment was performed three times in duplicate. Each bar represents the mean (±SEM) percentage of viable cells in comparison to the control (defined as 100% and represented by untreated cells).
Figure 2 The viability of HepG2 cells incubated in the presence of 5, 17, and 39. HepG2 cells were exposed to growing concentrations (1–50 µM) of tested compounds for 24 h. Cell viability was measured using an MTT assay. Bars represent mean percent of cell viability normalized to non-treated cells (100%) ± SEM. The doxorubicin was tested as a positive control.

[1] = rotarod test (acute neurological toxicity, motor coordination); assay type: in vivo; details: male, CD-1 (albino Swiss), mouse, in vivo, ip, mice i.p.
Method: (§2) The protective indexes (PIs) were then calculated as the ratio of TD50 to ED50 (PI = TD50/ED50), providing an assessment of the therapeutic window for each compound.

SH-SY5Y cells = assay: neurocytotoxicity MTT viability assay; assay type: cell-based, human; details: 1–50 µM, 24 h
Method: as §1
Figure 3 The viability of SH-SY5Y cells incubated in the presence of compounds 5, 17, and 39. […] Cell viability was measured using an MTT assay. […]

human recombinant MAO-B = molecular target: T1, human recombinant MAO-B (Homo sapiens, UniProt P27338); assay: fluorometric monoamine oxidase B inhibition assay; assay type: biochemical; details: for inhibition at 1 µM: read-out: % inhibition MAO-B (1 µM), mean of two independent experiments; for % inhibition MAO-B (1 µM): mean of two independent experiments
T1 construct: purchased Sigma Aldrich
T1 sequence (P27338 1-520): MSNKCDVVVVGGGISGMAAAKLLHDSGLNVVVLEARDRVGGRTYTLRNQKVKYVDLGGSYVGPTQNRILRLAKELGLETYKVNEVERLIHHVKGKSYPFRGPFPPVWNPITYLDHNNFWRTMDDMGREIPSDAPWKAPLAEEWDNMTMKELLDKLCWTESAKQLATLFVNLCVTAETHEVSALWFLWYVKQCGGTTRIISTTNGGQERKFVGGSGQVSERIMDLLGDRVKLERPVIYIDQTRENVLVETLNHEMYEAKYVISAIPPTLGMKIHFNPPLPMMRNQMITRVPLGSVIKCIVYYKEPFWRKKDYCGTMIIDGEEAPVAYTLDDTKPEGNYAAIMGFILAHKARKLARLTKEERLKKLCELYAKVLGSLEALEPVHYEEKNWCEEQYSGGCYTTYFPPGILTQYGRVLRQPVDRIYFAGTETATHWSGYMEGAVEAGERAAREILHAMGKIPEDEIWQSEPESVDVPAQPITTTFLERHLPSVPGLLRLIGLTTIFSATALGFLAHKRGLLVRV

[2] = system: maximal electroshock (MES) seizures; assay: maximal electroshock seizure (MES) test; assay type: in vivo, mice; details: for responders at 100 mg/kg / ED50: Mus musculus, ip; for responders at 100 mg/kg / ED50 / protection (efficacy) in the MES screening / MES test: number of mice protected / number of mice tested / ED50 MES: mice i.p.; for ED50 / ED50 MES: TPE 0.5 h, 95% confidence interval in parentheses; for PI (TD50/ED50) MES: TD50 rotarod / ED50 MES
Excerpt: Epilepsy is a multifaceted disorder with often unclear etiology, making it challenging to pinpoint a specific receptor or transporter as the definitive target. Consequently, the discovery of ASMs deviates from the traditional drug development pathway, which typically involves designing a new molecule, docking it with a specific biological target, and performing chemical synthesis, followed by in vitro assays. Instead, numerous animal seizure models, which mirror various types of human epileptic seizures, are initially employed in the process of new ASM discovery. This approach has been instrumental in the identification and introduction into clinical practice of all currently used ASMs and continues to be a cornerstone in the preclinical development of new anticonvulsants. The primary justification for prioritizing in vivo screening over in vitro binding and functional studies is the complex and often not fully elucidated mechanisms of action of known ASMs. This approach also facilitates the discovery of compounds with novel, previously undefined pharmacodynamic properties. In light of this, we evaluated all compounds obtained in the current studies using the MES test, which remains one of the most valuable preclinical screening models for tonic-clonic seizures, as well as partial convulsions with or without secondary generalization in humans. This test allows for a comprehensive assessment of the anticonvulsant efficacy of new ASM candidates and is considered highly relevant for predicting their therapeutic efficacy in human epilepsy. The MES test was carried out in mice following the intraperitoneal (i.p.) administration of a screening dose of 100 mg/kg in a group consisting of four animals. The efficacy of the compounds synthesized was evaluated at 0.5 h pretreatment time.
Fresh solutions were prepared daily for each experimentation session.
Each group consisted of six animals.

6 Hz (32 mA) seizures [3] = assay: 6 Hz (32 mA) psychomotor seizure model; details: for ED50 / responders at 100 mg/kg: Mus musculus, ip; for ED50 / responders at 100 mg/kg / protection (efficacy) in the 6 Hz (32 mA) screening: 0.5 h; for ED50: read-out: ED50 6 Hz (32 mA), mice i.p., TPE 0.5 h, 95% confidence interval in parentheses; for responders at 100 mg/kg: read-out: protection (efficacy) in the 6 Hz (32 mA) screening; for PI (TD50/ED50) 6 Hz: TD50 rotarod / ED50 6 Hz (32 mA); for protection (efficacy) in the 6 Hz (32 mA) screening / ED50 6 Hz (32 mA) / 6 Hz (32 mA) test: number of mice protected / number of mice tested: mice i.p.; for protection (efficacy) in the 6 Hz (32 mA) screening: 100 mg/kg, four mice; for ED50 6 Hz (32 mA): TPE 0.5 h, 95% confidence interval in parentheses; for 6 Hz (32 mA) test: number of mice protected / number of mice tested: dose of 100 mg/kg, pretreatment time 0.5 h;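 as to all read-outs here: adult male albino Swiss CD-1 mice, each used once, with compounds suspended in 1% Tween 80 in water as vehicle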
motor coordination [4] = details: cited from earlier work
motor coordination [5] = assay: rotarod test (acute neurological toxicity, motor coordination); assay type: in vivo; details: mice i.p., 0.5 h
Method: as §2

6 Hz (32 mA) seizures [6] = details: cited from earlier work; for PI (TD50/ED50) 6 Hz: TD50 rotarod / ED50 6 Hz (32 mA)
6 Hz (44 mA) seizures = details: cited from earlier work; for PI (TD50/ED50) 6 Hz (44 mA): TD50 rotarod / ED50 6 Hz (44 mA)
[7] = system: maximal electroshock (MES) seizures; details: cited from earlier work; for PI (TD50/ED50) MES: TD50 rotarod / ED50 MES
[8] = dose of 100 mg/kg, pretreatment time 0.5 h, read-out: MES test: number of mice protected / number of mice tested (converted)
[9] = dose of 100 mg/kg, pretreatment time 0.5 h

## CC(C(=O)NCc1ccc(OCc2ccc(OC(F)(F)F)cc2)cc1)N1C(=O)CCC1=O (stereo not shown) [Compound 17, 2-(2,5-dioxopyrrolidin-1-yl)-N-(4-((4-(trifluoromethoxy)benzyl)oxy)benzyl)propanamide]
HepG2 cells; 1–50 µM
  toxic effect on HepG2 cell viability (MTT): do not exhibit toxic effects
[1]
  TD50 at 0.5 h: > 300 mg/kg
SH-SY5Y cells
  toxic effect on SH-SY5Y cell viability (MTT): do not exhibit toxic effects
other
  melting point: 104.1 to 104.8 °C
Human recombinant MAO-B
  inhibition at 1 µM: 0%
[2]; 100 mg/kg, 0.5 h, four mice, read-out: protection (efficacy) in the MES screening
  responders at 100 mg/kg: 100%
[2]
  ED50: 21 mg/kg
[2]; [8]
  responders at 100 mg/kg: 100%
6 Hz (32 mA) seizures [3]
  ED50: 77 mg/kg
  responders at 100 mg/kg: 75%

## CC[C@@H](C(N)=O)N1CCCC1=O [LEV, levetiracetam]
Motor coordination [4]; mice i.p., Table 2
  TD50 (rotarod test): >500 mg/kg
Motor coordination [4]; mice i.p., Table 3
  TD50 (rotarod test): >500 mg/kg

## CC(C(=O)NCc1ccc(OCc2ccc(OC(F)(F)F)cc2)cc1)N1CCCC1=O (stereo not shown) [Compound 39, 2-(2-oxopyrrolidin-1-yl)-N-(4-((4-(trifluoromethoxy)benzyl)oxy)benzyl)propanamide]
HepG2 cells; 50 µM, cell line not specified in the sentence (Figures 2 and 3)
  cell viability at higher concentration (MTT): statistically significant decrease in cell viability
[1]
  TD50 at 0.5 h: < 300 mg/kg
other
  melting point: 103.4 to 103.9 °C
Human recombinant MAO-B
  inhibition at 1 µM: 0%
[2]
  ED50: 36.2 mg/kg
  PI (TD50/ED50) MES: < 8.3
[2]; [8]
  responders at 100 mg/kg: 100%
6 Hz (32 mA) seizures [3]
  ED50: 37.3 mg/kg
  responders at 100 mg/kg: 100%
  PI (TD50/ED50) 6 Hz: < 8.0

## CC(C(=O)NCc1ccc(OCc2ccccc2Cl)cc1)N1C(=O)CCC1=O (stereo not shown) [Compound 9, N-(4-((2-chlorobenzyl)oxy)benzyl)-2-(2,5-dioxopyrrolidin-1-yl)propanamide]
Motor coordination [5]
  TD50 (rotarod test): >300 mg/kg
Human recombinant MAO-B
  % inhibition MAO-B (1 µM): 0%
[2]
  PI (TD50/ED50) MES: > 6.3
[2]; 100 mg/kg, 0.5 h, four mice
  protection (efficacy) in the MES screening: 100%
[2]; [9]
  MES test: number of mice protected / number of mice tested: 4/4
6 Hz (32 mA) seizures [3]
  PI (TD50/ED50) 6 Hz: > 5.2
  protection (efficacy) in the 6 Hz (32 mA) screening: 75%
  ED50 6 Hz (32 mA): 57.69 (33.98–97.94) mg/kg
  6 Hz (32 mA) test: number of mice protected / number of mice tested: 3/4

## CC(C(=O)NCc1ccc(OCc2cccc(Cl)c2)cc1)N1C(=O)CCC1=O (stereo not shown) [Compound 10, N-(4-((3-chlorobenzyl)oxy)benzyl)-2-(2,5-dioxopyrrolidin-1-yl)propanamide]
Motor coordination [5]
  TD50 (rotarod test): >300 mg/kg
Human recombinant MAO-B
  % inhibition MAO-B (1 µM): 0%
[2]
  PI (TD50/ED50) MES: > 5.9
  ED50 MES: 50.87 (45.29–57.13) mg/kg
[2]; 100 mg/kg, 0.5 h, four mice
  protection (efficacy) in the MES screening: 100%
[2]; [9]
  MES test: number of mice protected / number of mice tested: 4/4
6 Hz (32 mA) seizures [3]
  PI (TD50/ED50) 6 Hz: > 5.0
  protection (efficacy) in the 6 Hz (32 mA) screening: 75%
  ED50 6 Hz (32 mA): 59.31 (45.54–73.08) mg/kg
  6 Hz (32 mA) test: number of mice protected / number of mice tested: 3/4

## CC(C(=O)NCc1ccc(OCc2cccc(F)c2)cc1)N1C(=O)CCC1=O (stereo not shown) [Compound 7, 2-(2,5-dioxopyrrolidin-1-yl)-N-(4-((3-fluorobenzyl)oxy)benzyl)propanamide]
Motor coordination [5]
  TD50 (rotarod test): >300 mg/kg
Human recombinant MAO-B
  % inhibition MAO-B (1 µM): 0%
[2]
  PI (TD50/ED50) MES: > 3.8
  ED50 MES: 78.30 (65.82–93.13) mg/kg
[2]; 100 mg/kg, 0.5 h, four mice
  protection (efficacy) in the MES screening: ≤ 25%
[2]; [9]
  MES test: number of mice protected / number of mice tested: 1/4
6 Hz (32 mA) seizures [3]
  PI (TD50/ED50) 6 Hz: > 4.2
  protection (efficacy) in the 6 Hz (32 mA) screening: 100%
  ED50 6 Hz (32 mA): 71.73 (66.6–77.23) mg/kg
  6 Hz (32 mA) test: number of mice protected / number of mice tested: 4/4

## C[C@H](C(=O)NCc1ccccc1)N1C(=O)CCC1=O [(R)-AS-1, (R)-N-Benzyl-2-(2,5-Dioxopyrrolidin-1-Yl)Propanamide]
6 Hz (32 mA) seizures [6]
  PI (TD50/ED50) 6 Hz: > 32.0
6 Hz (44 mA) seizures
  PI (TD50/ED50) 6 Hz (44 mA): >12.0
Motor coordination [4]; mouse, in vivo, ip
  TD50 (rotarod test): >500 mg/kg
[7]
  PI (TD50/ED50) MES: > 7.5

## COC[C@@H](NC(C)=O)C(=O)NCc1ccccc1 [LCS, lacosamide]
6 Hz (32 mA) seizures [6]
  PI (TD50/ED50) 6 Hz: 8.8
6 Hz (32 mA) seizures [6]; mouse, in vivo, ip
  ED50 6 Hz (32 mA): 5.3 (3.5–7.8) mg/kg
6 Hz (44 mA) seizures
  PI (TD50/ED50) 6 Hz (44 mA): 6.7
6 Hz (44 mA) seizures; mice i.p., TPE 0.5 h (LEV 1.0 h)
  ED50 6 Hz (44 mA): 6.9 (5.4–8.6) mg/kg
[7]
  PI (TD50/ED50) MES: 5.0
[7]; mice i.p., TPE 0.5 h (LEV 1.0 h), same conditions
  ED50 MES: 9.2 (8.5–10.0) mg/kg
